# “Also recorded” adds a separate entry of the source.
# Tests used:
# [1] = tested on: SH-SY5Y xenografts; test: SH-SY5Y neuroblastoma s.c. xenografts in SCID mice, compound 102 and TMZ; type: in vivo; details: as U87MG plus one additional cycle; followed 7 weeks
# Experimental: 5×10^6 U87MG cells were inoculated s.c. into each flank of 20 SCID mice. When the xenografts were 0.5+/−0.1 cm (day 0), 5 animals each received i.p. vehicle alone days 1-12 (50% DMSO/H20); compound 102 alone at 1.5 mg/kg days 1-3, 5-7, & 9-11; TMZ alone at 80 mg/kg days 4, 8, 12; or both drugs at the same doses and schedules. If xenografts reached 1800 mm^3, animals were sacrificed. […] B, Survival curve combining the data from the study shown in FIG. 12A, with a second identical study involving a total of 10 animals with two xenografts each. Disease-free survival was defined as no recurrence of either xenografts. […] As in 12A, except that xenografts of SH-SY5Y cells were implanted in one flank only and animals were treated with one additional cycle of drugs, i.e., compound 102 on days 13-15, TMZ, on day 16, and compound 102 plus TMZ on the same schedules. […] E, Western blots of U87 cells in culture 24 hours after exposure to compound 102 at 2.5 uM, TMZ at 25 uM or DOX at 2 uM, and compound 102 plus TMZ or DOX. F, Western blots of U373 cells 24 hours after exposure to compound 102 at 2.5 uM, doxorubicin at 2 uM, and both drugs. G, Western blots of U373 cells 24 hours after exposure to TMZ at 25 uM, okadaic acid at 2 nM, and both drugs. […]
# [2] = tested on: DAOY medulloblastoma cells; test: DAOY medulloblastoma s.c. xenografts in SCID mice; type: in vivo; details: treatment from day 6, by day 23
# Experimental: DAOY medulloblastoma cells were implanted subcutaneously into the flanks of SCID mice. On day 6, mice were divided into 3 groups, one group receiving Compound 100, one group receiving Compound 102, and one group receiving vehicle alone. The subcutaneous tumor masses were measured on day 6, day 13, day 18, and on day 23 when all animals were sacrificed. […] In this model DAOY cells, when untreated, reached their maximum growth about 2 weeks after implantation with slow regression thereafterwards.
# [3] = tested on: U87MG cells; test: Cellular and molecular changes in U87MG cells (Western blots, IFS); type: cell-based, human
# Experimental: D, Western blots of U87 lysates: TCTP, pPlk (Tre-210), total Plk, and β-actin. E, IFS of TCTP in U87 cells, F, Western blots p53 (ser-15), pMDM2 (ser-166), and β-actin and G, IFS of p53 (ser-15).
# (§1) 5×10^6 U87MG cells were inoculated s.c. into each flank of 20 SCID mice. When the xenografts were 0.5+/−0.1 cm (day 0), 5 animals each received i.p. vehicle alone days 1-12 (50% DMSO/H20); compound 102 alone at 1.5 mg/kg days 1-3, 5-7, & 9-11; TMZ alone at 80 mg/kg days 4, 8, 12; or both drugs at the same doses and schedules. If xenografts reached 1800 mm^3, animals were sacrificed. […] B, Survival curve combining the data from the study shown in FIG. 12A, with a second identical study involving a total of 10 animals with two xenografts each. Disease-free survival was defined as no recurrence of either xenografts. […] As in 12A, except that xenografts of SH-SY5Y cells were implanted in one flank only and animals were treated with one additional cycle of drugs, i.e., compound 102 on days 13-15, TMZ, on day 16, and compound 102 plus TMZ on the same schedules. […] E, Western blots of U87 cells in culture 24 hours after exposure to compound 102 at 2.5 uM, TMZ at 25 uM or DOX at 2 uM, and compound 102 plus TMZ or DOX. F, Western blots of U373 cells 24 hours after exposure to compound 102 at 2.5 uM, doxorubicin at 2 uM, and both drugs. G, Western blots of U373 cells 24 hours after exposure to TMZ at 25 uM, okadaic acid at 2 nM, and both drugs.
# TCTP is an abundant, highly conserved, multifunctional protein that binds to and stabilizes microtubules before and after mitosis and also exerts potent anti-apoptotic activity (Bommer and Thiele, 2004; Yarm, 2002; Susini et al, 2008) (FIG. 11E).
# […] Akt-1 activation, however, may be anti- or proapoptotic depending on the context of cell signaling (Andrabi et al, 2007).
# The effects of compound 102, TMZ, doxorubicin (DOX), a widely used anti-cancer drug that disrupts DNA replication, compound 102 plus TMZ, and compound 102 plus DOX on the amount of pAkt, p53 and MDM2 in U87MG, a cell line with wild-type p53, and in U373, a cell line with mutant p53 (Short et al, 2007) were assessed by Western blots.
# [4] = tested on: U373 cells; test: Cell cycle distribution of U373 cells by FACS; type: cell-based, human; details: U373, 48 hours
# Experimental: Cells in unsynchronized logarithmic growth were exposed to vehicle or drug and adherent cells and cells in the media were collected. Harvested cells were fixed with 70% cold ethanol for 20 min at −20 degrees, washed with PBS, and stained with 10 ug/ml of PI and 1 ug/ml RNAse in TBS for 30 minutes and analyzed by FACS. A, Flow cytometry profiles of U87 cells after exposures to DMSO only, compound 102 only, 5 uM; TMZ only, 25 uM; compound 102 with TMZ combination, doxorubicin only, 2.0 uM and compound 102 with doxorubicin combination. B, Flow cytometry profiles of U373 cells. Exposures as in A, and C, Schema of proposed mechanisms of compound 102 enhancement of cancer chemotherapy.
# We analyzed cell cycle patterns of U87MG and U373 cells 48 hours after exposure to TMZ or DOX alone and in combination with compound 102.
# [5] = tested on: U373 cells; test: Western blots of U373 cells; type: cell-based, human; details: U373 (mutant p53), 24 hours
# Experimental: as §1
# [6] = U87MG, 24 hours, compound 102 2.5 uM, TMZ 25 uM, DOX 2 uM
smiles,measurement,setting,value
CC(C)(C)OC(=O)N1CCN(C(=O)C2C(C(=O)O)[C@H]3CC[C@@H]2O3)CC1 (some centres unmarked) [Compound 102],NB (SH-SY5Y) xenograft growth,[1],completely suppressed growth for 2 weeks; also recorded: no growth until week 3
same,DAOY subcutaneous tumor mass,[2],marked regression
same,intracellular levels of p53 by immunofluorescence staining,"[3]; 24 hour, compound 102 2.5 uM, TMZ 25 uM",reduction
same,TCTP,"[3]; U87MG, 2.5 uM, 24 hour",marked decrease
same,microtubule and mitotic morphology,"[3]; U87MG, 2.5 uM, 24 hour",disordered microtubules and abnormal mitotic figures
same,pPlk-1,"[3]; U87MG, 2.5 uM, 24 hour",increased
same,phosphorylated MDM2,"[3]; U87MG, 2.5 uM, 24 hour",increased
same,MDM2,[3]; [6],increased
same,p53,[3]; [6],decreased; also recorded: eliminated
same,pAkt-1,[3]; [6],increased
same,G1 phase cells,"[4]; compound 102 5 uM, TMZ 25 uM, doxorubicin 2.0 uM",no effect
same,G2/M phase cells,[4]; same concentrations,no effect
same,S phase cells,[4]; same concentrations,no effect
same,"molecular changes in pAkt-1, p53, and MDM2 compared with U87MG",[5],same molecular changes
